Reference: US12264156B2, “Compounds and pharmaceutical compositions thereof for the treatment of diseases” (GALAPAGOS NV, priority 2018, dated 2025)

Experiments:
Type in all cases: biochemical
Conditions in all cases: ADP-Glo SIK kinase assay
SIK1 = biological target: T1, SIK1 (Homo sapiens, UniProt P57059); assay: ADP-Glo kinase assay, SIK1
T1 construct: purchased Carna Biosciences 02-131
Summary of the method: (§1)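 ADP-Glo, RT throughout. Enz/substrate + ATP, 120 min; ADP-Glo reagent 40 min (ATP depletion); detection reagent 30 min; luminescence read. Neg ctrl 1% DMSO, pos ctrl 10 μM staurosporine, final concs.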

SIK2 = biological target: T2, SIK2 (Homo sapiens, UniProt Q9H0K1); assay: ADP-Glo kinase assay, SIK2
T2 construct: purchased ThermoFisher Scientific PV4792
Summary of the method: as §1

SIK3 = biological target: T3, SIK3 (Homo sapiens, UniProt Q9Y2K2); assay: ADP-Glo kinase assay, SIK3
T3 construct: purchased SignalChem S12-11G-100
Summary of the method: as §1

T1 sequence (P57059 whole entry): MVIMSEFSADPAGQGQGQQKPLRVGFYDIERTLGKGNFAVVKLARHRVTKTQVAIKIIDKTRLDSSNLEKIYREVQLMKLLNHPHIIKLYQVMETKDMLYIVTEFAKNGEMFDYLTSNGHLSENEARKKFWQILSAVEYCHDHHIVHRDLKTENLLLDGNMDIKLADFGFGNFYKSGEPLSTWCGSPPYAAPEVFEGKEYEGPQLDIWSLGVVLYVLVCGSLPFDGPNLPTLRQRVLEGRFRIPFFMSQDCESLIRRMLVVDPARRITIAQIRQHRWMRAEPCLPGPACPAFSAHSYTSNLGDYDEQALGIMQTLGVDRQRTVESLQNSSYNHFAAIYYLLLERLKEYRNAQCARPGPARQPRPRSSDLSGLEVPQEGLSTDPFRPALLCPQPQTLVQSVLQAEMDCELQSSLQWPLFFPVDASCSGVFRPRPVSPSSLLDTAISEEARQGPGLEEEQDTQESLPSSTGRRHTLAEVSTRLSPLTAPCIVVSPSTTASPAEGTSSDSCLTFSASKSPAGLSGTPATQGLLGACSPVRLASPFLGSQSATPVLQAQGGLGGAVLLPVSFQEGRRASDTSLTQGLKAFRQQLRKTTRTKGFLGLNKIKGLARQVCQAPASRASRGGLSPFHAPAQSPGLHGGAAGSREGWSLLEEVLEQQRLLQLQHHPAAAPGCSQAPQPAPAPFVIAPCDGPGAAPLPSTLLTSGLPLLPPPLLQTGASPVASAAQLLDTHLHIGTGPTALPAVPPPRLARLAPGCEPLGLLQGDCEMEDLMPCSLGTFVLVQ
T2 sequence (Q9H0K1 whole entry): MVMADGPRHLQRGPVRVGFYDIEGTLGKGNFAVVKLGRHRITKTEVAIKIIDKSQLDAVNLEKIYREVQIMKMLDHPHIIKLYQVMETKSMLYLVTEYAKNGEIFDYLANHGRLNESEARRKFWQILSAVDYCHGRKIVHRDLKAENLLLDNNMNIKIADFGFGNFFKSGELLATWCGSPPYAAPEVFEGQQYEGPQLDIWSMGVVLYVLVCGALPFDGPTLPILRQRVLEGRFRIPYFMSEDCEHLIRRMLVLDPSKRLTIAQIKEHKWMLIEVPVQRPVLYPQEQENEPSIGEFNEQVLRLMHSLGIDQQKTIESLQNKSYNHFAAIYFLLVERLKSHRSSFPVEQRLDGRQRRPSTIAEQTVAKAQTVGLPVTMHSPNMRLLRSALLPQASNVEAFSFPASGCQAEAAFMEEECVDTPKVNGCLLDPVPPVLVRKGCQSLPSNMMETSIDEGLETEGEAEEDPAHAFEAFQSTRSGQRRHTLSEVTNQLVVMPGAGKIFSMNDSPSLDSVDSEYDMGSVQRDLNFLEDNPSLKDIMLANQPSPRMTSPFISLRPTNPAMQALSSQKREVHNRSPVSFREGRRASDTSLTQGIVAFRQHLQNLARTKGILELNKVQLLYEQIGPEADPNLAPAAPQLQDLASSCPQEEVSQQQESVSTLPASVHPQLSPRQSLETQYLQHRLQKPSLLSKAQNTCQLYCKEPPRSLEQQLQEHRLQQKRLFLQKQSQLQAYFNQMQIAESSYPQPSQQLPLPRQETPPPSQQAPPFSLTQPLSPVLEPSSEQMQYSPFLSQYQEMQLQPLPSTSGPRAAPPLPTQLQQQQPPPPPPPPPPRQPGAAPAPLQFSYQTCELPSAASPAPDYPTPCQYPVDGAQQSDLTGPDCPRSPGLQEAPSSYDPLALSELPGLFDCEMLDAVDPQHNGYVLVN
T3 sequence (Q9Y2K2 whole entry): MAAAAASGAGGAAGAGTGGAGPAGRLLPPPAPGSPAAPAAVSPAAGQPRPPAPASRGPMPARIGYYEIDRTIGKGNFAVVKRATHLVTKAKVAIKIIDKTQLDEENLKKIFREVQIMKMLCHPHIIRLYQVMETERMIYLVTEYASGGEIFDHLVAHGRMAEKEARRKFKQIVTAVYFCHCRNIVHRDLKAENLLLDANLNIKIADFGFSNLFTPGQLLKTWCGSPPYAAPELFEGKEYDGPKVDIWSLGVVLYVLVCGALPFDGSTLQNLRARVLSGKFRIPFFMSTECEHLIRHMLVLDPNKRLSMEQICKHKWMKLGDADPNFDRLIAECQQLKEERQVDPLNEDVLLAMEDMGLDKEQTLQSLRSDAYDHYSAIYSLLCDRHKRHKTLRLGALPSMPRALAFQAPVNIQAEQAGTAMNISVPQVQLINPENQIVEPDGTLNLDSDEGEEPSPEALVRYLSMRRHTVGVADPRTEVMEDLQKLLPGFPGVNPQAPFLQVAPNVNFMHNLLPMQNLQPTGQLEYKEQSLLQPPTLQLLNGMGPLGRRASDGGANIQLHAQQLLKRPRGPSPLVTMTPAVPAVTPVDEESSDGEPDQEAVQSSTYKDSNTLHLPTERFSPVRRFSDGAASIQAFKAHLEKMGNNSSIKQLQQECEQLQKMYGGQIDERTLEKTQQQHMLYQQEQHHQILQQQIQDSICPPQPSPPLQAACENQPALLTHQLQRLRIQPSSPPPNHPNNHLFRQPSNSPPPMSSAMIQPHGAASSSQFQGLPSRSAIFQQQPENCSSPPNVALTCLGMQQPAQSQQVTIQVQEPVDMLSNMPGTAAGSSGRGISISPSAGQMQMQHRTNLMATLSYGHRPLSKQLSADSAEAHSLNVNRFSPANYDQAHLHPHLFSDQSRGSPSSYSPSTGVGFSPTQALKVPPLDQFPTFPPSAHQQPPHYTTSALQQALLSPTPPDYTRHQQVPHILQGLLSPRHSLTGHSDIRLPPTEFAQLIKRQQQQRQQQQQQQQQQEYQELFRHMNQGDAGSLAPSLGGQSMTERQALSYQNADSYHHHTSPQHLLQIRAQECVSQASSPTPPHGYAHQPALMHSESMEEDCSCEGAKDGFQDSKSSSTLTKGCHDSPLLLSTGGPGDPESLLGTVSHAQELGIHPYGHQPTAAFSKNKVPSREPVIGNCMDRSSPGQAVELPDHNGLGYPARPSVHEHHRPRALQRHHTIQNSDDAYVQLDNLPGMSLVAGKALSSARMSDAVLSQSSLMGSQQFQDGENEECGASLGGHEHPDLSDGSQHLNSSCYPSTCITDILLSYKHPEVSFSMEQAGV

IC50 (SIK1) [nM]	IC50 (SIK2) [nM]	IC50 (SIK3) [nM]	Compound
10 to 100	0.01 to 10	0.01 to 10	COC(=O)[C@@H]1CN(CCOc2ccn3c(-c4cc(OC)c(C(=O)NC5CC5)c(OC(F)F)c4)cnc3c2)CCO1 [compound 389, methyl (2S)-4-[2-[3-[4-(cyclopropylcarbamoyl)-3-(difluoromethoxy)-5-methoxy-phenyl]imidazo[1,2-a]pyridin-7-yl]oxyethyl]morpholine-2-carboxylate]
100 to 500	100 to 500	10 to 100	COc1cc(-c2cnc3cc(OCC(=O)O)ccn23)cc(OC(F)F)c1C(=O)NC1CC1 [Cpd 396, 2-[3-[4-(cyclopropylcarbamoyl)-3-(difluoromethoxy)-5-methoxy-phenyl]imidazo[1,2-a]pyridin-7-yl]oxyacetic acid]
10 to 100	0.01 to 10	0.01 to 10	COc1cc(-c2cnc3cc(OCc4cccnn4)ccn23)cc(OC(F)F)c1C(=O)NC1CC1 [compound 226, N-cyclopropyl-2-(difluoromethoxy)-6-methoxy-4-[7-(pyridazin-3-ylmethoxy)imidazo[1,2-a]pyridin-3-yl]benzamide]
0.01 to 10	0.01 to 10	0.01 to 10	COc1cc(-c2cnc3cc(OCC4CCOCC4)ccn23)cc(OC(F)F)c1C(=O)NC1CC1 [compound 49, N-cyclopropyl-2-(difluoromethoxy)-6-methoxy-4-[7-(tetrahydropyran-4-ylmethoxy)imidazo[1,2-a]pyridin-3-yl] benzamide]
0.01 to 10	0.01 to 10	0.01 to 10	COc1cc(-c2cnc3cc(OCC4CC(F)(F)C4)ccn23)cc(OC(F)F)c1C(=O)NC1CC1 [compound 52, N-cyclopropyl-4-[7-[(3,3-difluorocyclobutyl)methoxy]imidazo[1,2-a]pyridin-3-yl]-2-(difluoromethoxy)-6-methoxy-benzamide]
100 to 500	0.01 to 10	0.01 to 10	CNCCOc1ccn2c(-c3cc4c(c(OC)c3)C(=O)N(CC(F)(F)F)CC4)cnc2c1 [compound 185, 8-methoxy-6-[7-[2-(methylamino)ethoxy]imidazo[1,2-a]pyridin-3-yl]-2-(2,2,2-trifluoroethyl)-3,4-dihydroisoquinolin-1-one]
10 to 100	0.01 to 10	0.01 to 10	COc1cc(-c2cnc3cc(OC[C@H]4CCCN(CCO)C4)ccn23)cc(OC(F)F)c1C(=O)NC1CC1 [Cpd 340, N-cyclopropyl-2-(difluoromethoxy)-4-[7-[[(3S)-1-(2-hydroxyethyl)-3-piperidyl]methoxy]imidazo [1,2-a]pyridin-3-yl]-6-methoxy-benzamide]
10 to 100	10 to 100	0.01 to 10	COc1cc(-c2cnc3cc(OCC4CCCCN4CC#N)ccn23)cc(OC(F)F)c1C(=O)NC1CC1 (stereo not drawn) [compound 269, 4-[7-[[1-(cyanomethyl)-2-piperidyl]methoxy]imidazo [1,2-a]pyridin-3-yl]-N-cyclopropyl-2-(difluoromethoxy)-6-methoxy-benzamide]
10 to 100	0.01 to 10	0.01 to 10	COc1cc(-c2cnc3cc(OCCN4C(C)CCCC4C)ccn23)cc(OC(F)F)c1C(=O)NC1CC1 (stereo not drawn) [compound 294, N-cyclopropyl-2-(difluoromethoxy)-4-[7-[2-(2,6-dimethyl-1-piperidyl)ethoxy]imidazo [1,2-a]pyridin-3-yl]-6-methoxy-benzamide]
10 to 100	0.01 to 10	0.01 to 10	COc1cc(-c2cnc3cc(OCCCOC(C)=O)ccn23)cc(OC(F)F)c1C(=O)NC1CC1 [Cpd 282, 3-[3-[4-(cyclopropylcarbamoyl)-3-(difluoromethoxy)-5-methoxy-phenyl]imidazo[1,2-a]pyridin-7-yl]oxypropyl acetate]
0.01 to 10	0.01 to 10	0.01 to 10	COc1cc(-c2cnc3cc(OC[C@H]4CCCN(CCC#N)C4)ccn23)cc(OC(F)F)c1C(=O)NC1CC1 [compound 351, 4-[7-[[(3S)-1-(2-cyanoethyl)-3-piperidyl]methoxy]imidazo [1,2-a]pyridin-3-yl]-N-cyclopropyl-2-(difluoromethoxy)-6-methoxy-benzamide]
100 to 500	0.01 to 10	0.01 to 10	COc1cc(-c2cnc3cc(OCC4CCCCN4C(C)C)ccn23)cc(OC(F)F)c1C(=O)NC1CC1 (stereo not drawn) [compound 148, N-cyclopropyl-2-(difluoromethoxy)-4-[7-[(1-isopropyl-2-piperidyl)methoxy]imidazo [1,2-a]pyridin-3-yl]-6-methoxy-benzamide]
0.01 to 10	0.01 to 10	0.01 to 10	COc1cc(-c2cnc3cc(OCCNc4ccncn4)ccn23)cc(OC(F)F)c1C(=O)NC1CC1 [compound 369, N-cyclopropyl-2-(difluoromethoxy)-6-methoxy-4-[7-[2-(pyrimidin-4-ylamino)ethoxy]imidazo [1,2-a]pyridin-3-yl]benzamide]
10 to 100	0.01 to 10	0.01 to 10	COc1cc(-c2cnc3cc(OCCN4CC(C)OC(C)C4)ccn23)cc(OC(F)F)c1C(=O)NC1CC1 (stereo not drawn) [Cpd 177, N-cyclopropyl-2-(difluoromethoxy)-4-[7-[2-(2,6-dimethylmorpholin-4-yl)ethoxy]imidazo [1,2-a]pyridin-3-yl]-6-methoxy-benzamide]
100 to 500	0.01 to 10	0.01 to 10	CNC(C)(C)COc1ccn2c(-c3cc(OC)c(C(=O)NC4CC4)c(OC(F)F)c3)cnc2c1 [Cpd 153, N-cyclopropyl-2-(difluoromethoxy)-6-methoxy-4-[7-[2-methyl-2-(methylamino)propoxy]imidazo[1,2-a]pyridin-3-yl]benzamide]
10 to 100	0.01 to 10	0.01 to 10	COc1cc(-c2cnc3cc(OCC(C)(C)CO)ccn23)cc(OC(F)F)c1C(=O)NC1CC1 [compound 74, N-cyclopropyl-2-(difluoromethoxy)-4-[7-(3-hydroxy-2,2-dimethyl-propoxy)imidazo[1,2-a]pyridin-3-yl]-6-methoxy-benzamide]
10 to 100	0.01 to 10	0.01 to 10	COc1cc(-c2cnc3cc(OCCCN4CCC(N(C)S(C)(=O)=O)CC4)ccn23)cc(OC(F)F)c1C(=O)NC1CC1 [compound 326, N-cyclopropyl-2-(difluoromethoxy)-6-methoxy-4-[7-[3-[4-[methyl(methylsulfonyl)amino]-1-piperidyl]propoxy]imidazo[1,2-a]pyridin-3-yl]benzamide]
10 to 100	0.01 to 10	0.01 to 10	COc1cc(-c2cnc3cc(OCC4CC4)ccn23)cc(OC(F)F)c1C(=O)NC1CC1 [compound 96, N-cyclopropyl-4-[7-(cyclopropylmethoxy)imidazo[1,2-a]pyridin-3-yl]-2-(difluoromethoxy)-6-methoxy-benzamide]
0.01 to 10	0.01 to 10	0.01 to 10	COc1cc(-c2cnc3cc(OCC4CC4(F)F)ccn23)cc(OC(F)F)c1C(=O)NC1CC1 (stereo not drawn) [compound 42, N-cyclopropyl-4-[7-[(2,2-difluorocyclopropyl)methoxy]imidazo[1,2-a]pyridin-3-yl]-2-(difluoromethoxy)-6-methoxy-benzamide]
